# From patent publication US20060069132A1, “Azolecarboxamide herbicides” (priority 2004, published 2006)
# Experiments:
# Test in all cases: Test A pre-/postemergence herbicide test
# giant foxtail = assay type: in vivo, Setaria faberi
# Text: (§1) Seeds of plant species selected from barnyardgrass (Echinochloa crus-galli (L.) Beauv.), downy bromegrass (Bromus tectorum L.), large crabgrass (Digitaria sanguinalis (L.) Scop.), giant foxtail (Setaria faberi Herrm.), morningglory (Ipomoea spp.), redroot pigweed (Amaranthus retroflexus L.) and velvetleaf (Abutilon theophrasti Medik.) were planted into a sandy loam soil and treated preemergence with a directed soil spray using test chemicals formulated in a non-phytotoxic solvent mixture which included a surfactant. At the same time plants selected from these species were also treated postemergence by spraying to runoff with test chemicals formulated.
# (§2) Plants ranged in height from 2 to 10 cm and were in the one- to two-leaf stage for the postemergence treatment. Treated plants and untreated controls were maintained in a greenhouse for approximately ten days, after which time all treated plants were compared to untreated controls and visually evaluated for injury. Plant response ratings, summarized in Table A, are based on a 0 to 100 scale where 0 is no effect and 100 is complete control. A dash (-) response means no test results.
# redroot pigweed = assay type: in vivo, Amaranthus retroflexus
# Text: as §1, §2
# barnyardgrass = assay type: in vivo, Echinochloa crus-galli
# Text: as §1, §2
# morningglory = assay type: in vivo, Ipomoea spp.
# Text: as §1, §2
# velvetleaf = assay type: in vivo, Abutilon theophrasti
# Text: as §1, §2
# large crabgrass = assay type: in vivo, Digitaria sanguinalis
# Text: as §1, §2
# [1] = Postemergence, 125 g ai/ha, 0 to 100 scale, 0 no effect, 100 complete control
# [2] = Postemergence, 500 g ai/ha, 0 to 100 scale, 0 no effect, 100 complete control
# [3] = preemergence, 125 g ai/ha, visual injury, 0 to 100 scale (0 no effect, 100 complete control)
# [4] = preemergence, 500 g ai/ha, visual injury, 0 to 100 scale (0 no effect, 100 complete control)
# [5] = Postemergence, 2000 g ai/ha, 0 to 100 scale, 0 no effect, 100 complete control
# [6] = Preemergence, 500 g ai/ha, visual rating, 0 to 100 scale (0 no effect, 100 complete control)
# [7] = Preemergence, 2000 g ai/ha, visual rating, 0 to 100 scale (0 no effect, 100 complete control)
smiles,measurement,setting,value
CCOC(=O)c1ccc(F)c(NC(=O)c2nc(C(C)(C)C)nn2CC)c1 [Compound 451],"Foxtail, Giant plant response rating",giant foxtail; [1],10
same,"Foxtail, Giant plant response rating",giant foxtail; [2],20
same,"Foxtail, Giant plant response rating",giant foxtail; [3],5
same,"Foxtail, Giant plant response rating",giant foxtail; [4],45
same,Pigweed plant response rating,redroot pigweed; [1],10
same,Pigweed plant response rating,redroot pigweed; [2],50
same,Pigweed plant response rating,redroot pigweed; [3],0
same,Pigweed plant response rating,redroot pigweed; [4],0
same,Barnyardgrass plant response rating,barnyardgrass; [1],10
same,Barnyardgrass plant response rating,barnyardgrass; [2],20
same,Barnyardgrass plant response rating,barnyardgrass; [3],15
same,Barnyardgrass plant response rating,barnyardgrass; [4],55
same,Morningglory plant response rating,morningglory; [1],20
same,Morningglory plant response rating,morningglory; [2],20
same,Morningglory plant response rating,morningglory; [3],0
same,Morningglory plant response rating,morningglory; [4],5
same,Velvetleaf plant response rating,velvetleaf; [1],20
same,Velvetleaf plant response rating,velvetleaf; [2],30
same,Velvetleaf plant response rating,velvetleaf; [3],0
same,Velvetleaf plant response rating,velvetleaf; [4],20
same,"Crabgrass, Large plant response rating",large crabgrass; [1],10
same,"Crabgrass, Large plant response rating",large crabgrass; [2],30
same,"Crabgrass, Large plant response rating",large crabgrass; [3],5
same,"Crabgrass, Large plant response rating",large crabgrass; [4],25
Cn1nc(C(C)(C)C)cc1C(=O)Nc1cccc2c1CCCC2=NO [Compound 116],"Foxtail, Giant plant response rating",giant foxtail; [2],0
same,"Plant response rating, Foxtail, Giant",giant foxtail; [5],0
same,"Foxtail, Giant plant response rating",giant foxtail; [6],20
same,"Foxtail, Giant plant response rating",giant foxtail; [7],35
same,Pigweed plant response rating,redroot pigweed; [2],0
same,"Plant response rating, Pigweed",redroot pigweed; [5],0
same,Pigweed plant response rating,redroot pigweed; [6],0
same,Pigweed plant response rating,redroot pigweed; [7],0
same,Barnyardgrass plant response rating,barnyardgrass; [2],0
same,"Plant response rating, Barnyardgrass",barnyardgrass; [5],25
same,Barnyardgrass plant response rating,barnyardgrass; [6],35
same,Barnyardgrass plant response rating,barnyardgrass; [7],70
same,Morningglory plant response rating,morningglory; [2],0
same,"Plant response rating, Morningglory",morningglory; [5],0
same,Morningglory plant response rating,morningglory; [6],0
same,Morningglory plant response rating,morningglory; [7],10
same,Velvetleaf plant response rating,velvetleaf; [2],0
same,"Plant response rating, Velvetleaf",velvetleaf; [5],0
same,Velvetleaf plant response rating,velvetleaf; [6],0
same,Velvetleaf plant response rating,velvetleaf; [7],0
same,"Crabgrass, Large plant response rating",large crabgrass; [2],0
same,"Plant response rating, Crabgrass, Large",large crabgrass; [5],10
same,"Crabgrass, Large plant response rating",large crabgrass; [6],45
same,"Crabgrass, Large plant response rating",large crabgrass; [7],80
CCNC(=O)c1cccc(NC(=O)c2cn(CC)nc2C(F)(F)F)c1 [Compound 172],"Foxtail, Giant plant response rating",giant foxtail; [2],0
same,"Plant response rating, Foxtail, Giant",giant foxtail; [5],0
same,"Foxtail, Giant plant response rating",giant foxtail; [7],0
same,"Foxtail, Giant plant response rating",giant foxtail; [4],0
same,Pigweed plant response rating,redroot pigweed; [2],25
same,"Plant response rating, Pigweed",redroot pigweed; [5],60
same,Pigweed plant response rating,redroot pigweed; [7],40
same,Pigweed plant response rating,redroot pigweed; [4],0
same,Barnyardgrass plant response rating,barnyardgrass; [2],0
same,"Plant response rating, Barnyardgrass",barnyardgrass; [5],0
same,Barnyardgrass plant response rating,barnyardgrass; [7],0
same,Barnyardgrass plant response rating,barnyardgrass; [4],0
same,Morningglory plant response rating,morningglory; [2],10
same,"Plant response rating, Morningglory",morningglory; [5],10
same,Morningglory plant response rating,morningglory; [7],0
same,Morningglory plant response rating,morningglory; [4],0
same,Velvetleaf plant response rating,velvetleaf; [2],5
same,"Plant response rating, Velvetleaf",velvetleaf; [5],15
same,Velvetleaf plant response rating,velvetleaf; [7],0
same,Velvetleaf plant response rating,velvetleaf; [4],0
same,"Crabgrass, Large plant response rating",large crabgrass; [2],0
same,"Plant response rating, Crabgrass, Large",large crabgrass; [5],0
same,"Crabgrass, Large plant response rating",large crabgrass; [7],0
same,"Crabgrass, Large plant response rating",large crabgrass; [4],0
